Data: PMC5843908, “Detection of PRMT1 inhibitors with stopped flow fluorescence” (Signal Transduction and Targeted Therapy, 2018)
Where two headings read alike, the source gives them in different places.

Assays:
[1] = system: PRMT1; parameters: method as in earlier work; conditions: binary binding to PRMT1; ref 2 (supplement; Feng et al. 2011); cited from earlier work
[2] = system: PRMT1; conditions: read-out: Km of SAM on H4FL; cited from earlier work
[3] = target: PRMT1 (Homo sapiens, UniProt Q99873)
PRMT1 (Homo sapiens, UniProt Q99873), sequence (Q99873 29-371): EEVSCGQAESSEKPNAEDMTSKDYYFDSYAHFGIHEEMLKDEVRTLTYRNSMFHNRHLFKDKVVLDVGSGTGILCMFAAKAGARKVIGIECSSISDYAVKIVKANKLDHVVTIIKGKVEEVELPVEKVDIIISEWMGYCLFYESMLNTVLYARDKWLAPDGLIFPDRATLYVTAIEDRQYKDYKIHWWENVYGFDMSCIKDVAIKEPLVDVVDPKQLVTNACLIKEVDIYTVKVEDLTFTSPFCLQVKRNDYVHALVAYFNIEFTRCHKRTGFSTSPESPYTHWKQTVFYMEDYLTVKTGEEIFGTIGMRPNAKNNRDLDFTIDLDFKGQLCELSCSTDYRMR
From the text: We plotted the values of a · k1 or −b · k2 against the SAM concentration (Fig. 3c, d).
In a stopped flow fluorescence assay, the binding of H4FL to PRMT1 (or the PRMT1—cofactor complex) quenches the peptide fluorescence, while release of the peptide restores the fluorescence. […] The widths of the entrance and exit slits of the monochromator were set to 0.5 mm. An equal volume of samples from two syringes was driven into the observation cell for mixing measurements. The H4FL concentration in all experiments was 0.4 μM. […] The fluorescent signal was recorded for 900 seconds, with 10,000 data points in total. Data from four to six drives were collected and averaged for each curve.
After averaging the shot data, the association time courses were fitted to a double-exponential function (equation 2) using GraphPad Prism (CA, USA). […] F is the fluorescence intensity at time t, k1, and k2 are the rate constants for Phase I and Phase II, a is the amplitude of the fluorescence change for k1, and b is the amplitude of the fluorescence change for k2. Simulation curves based on the values of a, b, k1, and k2 at fixed c = 1 were produced using Matlab.

acetyl -SGRme2aGKGGKGK(FL)GKGGAKRHRK [H4FLme2]
koff [1]: 319 s⁻¹ | kon [1]: 2.6e+07 M⁻¹ s⁻¹

C[S+](CC[C@H](N)C(=O)[O-])C[C@H]1O[C@@H](n2cnc3c(N)ncnc32)[C@H](O)[C@@H]1O (stereo partly drawn) [SAM, S-adenosylmethionine]
Km [2]: 3.1 ± 0.46 µM | -b·k2 (slope of Phase II) ([3]; [SAM] 1.5 µM): 0.0002 ± 9.72e-07 s⁻¹ | a (amplitude, Phase I) ([3]; [SAM] 1.5 µM): 0.0482 ± 2.31E-04 | a·k1 (slope of Phase I) ([3]; [SAM] 1.5 µM): 0.00212 ± 2.2e-05 s⁻¹ | b (amplitude, Phase II) ([3]; [SAM] 1.5 µM): -0.07363 ± 8.97E-05 | k1 (rate constant, Phase I) ([3]; [SAM] 1.5 µM): 0.04402 ± 4.06E-04 s^-1 | k2 (rate constant, Phase II) ([3]; [SAM] 1.5 µM): 0.002713 ± 1.28E-05 s^-1 | -b·k2 (slope of Phase II) ([3]; [SAM] 3.5 µM): 0.000878 ± 2.58e-06 s⁻¹ | a (amplitude, Phase I) ([3]; [SAM] 3.5 µM): 0.0846 ± 3.83E-04 | a·k1 (slope of Phase I) ([3]; [SAM] 3.5 µM): 0.00678 ± 6.58e-05 s⁻¹ | b (amplitude, Phase II) ([3]; [SAM] 3.5 µM): -0.1161 ± 2.14E-04 | k1 (rate constant, Phase I) ([3]; [SAM] 3.5 µM): 0.08016 ± 6.88E-04 s^-1 | k2 (rate constant, Phase II) ([3]; [SAM] 3.5 µM): 0.007565 ± 1.73E-05 s^-1 | -b·k2 (slope of Phase II) ([3]; [SAM] 7.5 µM): 0.00141 ± 4.46e-06 s⁻¹ | a (amplitude, Phase I) ([3]; [SAM] 7.5 µM): 0.1529 ± 1.79E-03 | a·k1 (slope of Phase I) ([3]; [SAM] 7.5 µM): 0.0272 ± 0.000547 s⁻¹ | b (amplitude, Phase II) ([3]; [SAM] 7.5 µM): -0.2054 ± 3.40E-04 | k1 (rate constant, Phase I) ([3]; [SAM] 7.5 µM): 0.1778 ± 2.91E-03 s^-1 | k2 (rate constant, Phase II) ([3]; [SAM] 7.5 µM): 0.006848 ± 1.85E-05 s^-1 | -b·k2 (slope of Phase II) ([3]; [SAM] 15 µM): 0.00313 ± 1.01e-05 s⁻¹ | a (amplitude, Phase I) ([3]; [SAM] 15 µM): 0.1992 ± 2.65E-03 | a·k1 (slope of Phase I) ([3]; [SAM] 15 µM): 0.0493 ± 0.00109 s⁻¹ | b (amplitude, Phase II) ([3]; [SAM] 15 µM): -0.2664 ± 5.21E-04 | k1 (rate constant, Phase I) ([3]; [SAM] 15 µM): 0.2476 ± 4.40E-03 s^-1 | k2 (rate constant, Phase II) ([3]; [SAM] 15 µM): 0.01175 ± 3.03E-05 s^-1
